Source: patent US20110053916A1 (Vertex Pharmaceuticals Incorporated, priority 2009, published 2011)
Where a name gives a salt, the structure may show the parent alone.

Biological target: T1, PknB (Mycobacterium tuberculosis, UniProt P9WI81)
T1 construct: made in house
Assay: biochemical
Design: species or system M. tuberculosis
Details: not given

T1 sequence (P9WI81 whole entry): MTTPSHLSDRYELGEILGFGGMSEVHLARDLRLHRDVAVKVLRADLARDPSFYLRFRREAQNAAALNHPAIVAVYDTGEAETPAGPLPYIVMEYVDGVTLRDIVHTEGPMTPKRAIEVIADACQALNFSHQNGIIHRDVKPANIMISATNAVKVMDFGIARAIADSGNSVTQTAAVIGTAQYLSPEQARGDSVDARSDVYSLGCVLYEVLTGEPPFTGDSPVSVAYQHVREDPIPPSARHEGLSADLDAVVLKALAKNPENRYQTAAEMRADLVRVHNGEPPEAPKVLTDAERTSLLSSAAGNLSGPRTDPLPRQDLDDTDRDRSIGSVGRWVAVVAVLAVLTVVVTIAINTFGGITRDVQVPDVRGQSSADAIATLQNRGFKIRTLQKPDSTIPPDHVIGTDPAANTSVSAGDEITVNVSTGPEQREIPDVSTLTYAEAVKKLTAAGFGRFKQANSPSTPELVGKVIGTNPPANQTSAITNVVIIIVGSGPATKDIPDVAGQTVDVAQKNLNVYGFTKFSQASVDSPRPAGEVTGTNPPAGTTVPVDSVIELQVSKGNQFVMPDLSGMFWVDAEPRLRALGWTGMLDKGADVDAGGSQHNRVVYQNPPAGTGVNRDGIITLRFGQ

Row | Compound | Ki [nM] | Ki Values
1 | COC(=O)c1ccc(-c2ncc(Cl)c(Nc3cc(C4CC4)n[nH]3)n2)s1 [Compound 154, Methyl5-(5-chloro-4-(3-cyclopropyl-1H-pyrazol-5-ylamino)pyrimidin-2-yl)thiophene-2-carboxylate hydrochloride] | 10 to 50 | –
2 | C#Cc1cnc(-c2ccc(C(=O)OC)s2)nc1Nc1cc(C2CC2)[nH]n1 [Compound 151, Methyl 5-(4-(5-cyclopropyl-1H-pyrazol-3-ylamino)-5-ethynylpyrimidin-2-yl)thiophene-2-carboxylate hydrochloride] | – | A**, A*

Same assay, conditions: 3 nM PknB, 6 uM GarA, 3 μM ATP, 30 min; competitive tight-binding fit; several symbols in a cell = repeat determinations

Row | Compound | Ki Values
3 | CS(=O)(=O)c1ccc(-c2ncc(Cl)c(Nc3cc(C4CC4)[nH]n3)n2)cc1 [Compound 23, 5-chloro-N-(5-cyclopropyl-1H-pyrazol-3-yl)-2-(4-methylsulfonylphenyl)-pyrimidin-4-amine] | A, B**
4 | C#Cc1cnc(N2CC[C@H](NC(=O)OC(C)(C)C)C2)nc1Nc1cc(C2CC2)n[nH]1 [Compound 169, tert-butyl [[1-[4-[(5-cyclopropyl-2H-pyrazol-3-yl)amino]-5-ethynyl-pyrimidin-2-yl]pyrrolidin-3-yl]amino]formate] | C, D
5 | CC(=O)c1ccc(-c2ncc(Br)c(Nc3cc(C4CC4)[nH]n3)n2)s1 [Compound 165, 1-[5-[5-bromo-4-[(5-cyclopropyl-1H-pyrazol-3-yl)amino]-pyrimidin-2-yl]-2-thienyl]ethanone] | A**, A*
6 | C#Cc1cnc(Nc2ccc(CC#N)cc2)nc1Nc1cc(C2CC2)[nH]n1 [Compound 101, 2-(4-(4-(5-Cyclopropyl-1H-pyrazol-3-ylamino)-5-ethynylpyrimidin-2-ylamino)phenyl)acetonitrile] | A*, A*, A
7 | NS(=O)(=O)c1cc(-c2ncc(Cl)c(Nc3cc(C4CC4)[nH]n3)n2)ccc1Cl [Compound 58, 2-chloro-5-[5-chloro-4-[(5-cyclopropyl-1H-pyrazol-3-yl)amino]-pyrimidin-2-yl]-benzenesulfonamide] | B, C, C
8 | C#Cc1cnc(-c2ccc(CNC(=O)OC(C)(C)C)s2)nc1Nc1cc(C2CC2)[nH]n1 [Compound 168, Tert-butyl (5-(4-(5-cyclopropyl-1H-pyrazol-3-ylamino)-5-ethynylpyrimidin-2-yl)thiophen-2-yl)methylcarbamate] | B**, B**, B

Same assay, conditions: 3 nM PknB, 6 uM GarA, 3 μM ATP, 30 min; competitive tight-binding fit; several symbols in a cell = repeat determinations; read-out: Ki Values

Row | Compound | Ki [nM]
9 | C#Cc1cnc(-c2cccc(S(=O)(=O)NCCO)c2)nc1Nc1cc(C2CC2)[nH]n1 [Compound 122, 3-(4-(3-Cyclopropyl-1H-pyrazol-5-ylamino)-5-ethynylpyrimidin-2-yl)-N-(2-hydroxyethyl)benzene sulfonamide] | 10 to 50
10 | C#Cc1cnc(-c2cccc(S(N)(=O)=O)c2)nc1Nc1cc(C2CC2)[nH]n1 [Compound 110, 3-(4-(5-cyclopropyl-1H-pyrazol-3-ylamino)-5-ethynylpyrimidin-2-yl)benzene sulfonamide] | 10 to 50
11 | CC(C)(C)NS(=O)(=O)c1ccc(-c2nc(Nc3cc(C4CC4)[nH]n3)cc(C(=O)O)n2)s1 [Compound 278, 6-[(5-cyclopropyl-1H-pyrazol-3-yl)amino]-2-[5-(tert-butylsulfamoyl)-2-thienyl]-pyrimidine-4-carboxylic acid] | 100 to 500
12 | C#Cc1cnc(-c2ccc(C(O)C(=O)O)s2)nc1Nc1cc(C2CC2)[nH]n1 (stereo not shown) [Compound 231, 2-[5-[4-[(5-cyclopropyl-1H-pyrazol-3-yl)amino]-5-ethynyl-pyrimidin-2-yl]-2-thienyl]-2-hydroxy-acetic acid] | 50 to 100
13 | CC(=O)n1nc(Nc2nc(-c3ccccc3)ncc2N)cc1C1CC1 [Compound 4, 1-[3-[(5-amino-2-phenyl-pyrimidin-4-yl)amino]-5-cyclopropyl-pyrazol-1-yl]ethanone] | 100 to 500
14 | C#Cc1cnc(C2=CCNCC2)nc1Nc1cc(C2CC2)[nH]n1 [Compound 249, N-(5-cyclopropyl-1H-pyrazol-3-yl)-5-ethynyl-2-(1,2,3,6-tetrahydropyridin-4-yl)pyrimidin-4-amine] | > 4000
15 | NS(=O)(=O)c1ccc(-c2ncc(Cl)c(Nc3cc(-c4cccs4)[nH]n3)n2)s1 [Compound 220, 5-[5-chloro-4-[[5-(2-thienyl)-1H-pyrazol-3-yl]amino]-pyrimidin-2-yl]thiophene-2-sulfonamide] | > 4000
16 | NS(=O)(=O)c1ccc(-c2nc(CO)cc(Nc3cc(C4CC4)[nH]n3)n2)s1 [Compound 285, 5-[4-[(5-cyclopropyl-1H-pyrazol-3-yl)amino]-6-(hydroxymethyl)pyrimidin-2-yl]thiophene-2-sulfonamide] | 1 to 10
17 | C#Cc1cnc(-c2ccc(C(O)CCOC)s2)nc1Nc1cc(C2CC2)n[nH]1 (stereo not shown) [Compound 230, 1-[5-[4-[(5-cyclopropyl-2H-pyrazol-3-yl)amino]-5-ethynyl-pyrimidin-2-yl]-2-thienyl]-3-methoxy-propan-1-ol] | 50 to 100
18 | OCC(O)c1ccc(-c2ncc(Cl)c(Nc3cc(C4CC4)[nH]n3)n2)s1 (stereo not shown) [Compound 327, 1-[5-[5-chloro-4-[(5-cyclopropyl-1H-pyrazol-3-yl)amino]-pyrimidin-2-yl]-2-thienyl]ethane-1,2-diol] | 10 to 50
19 | CN1CCN(c2cc(Nc3cc(C4CC4)[nH]n3)nc(-c3ccc(S(N)(=O)=O)s3)n2)CC1 [Compound 325, 5-[4-[(5-cyclopropyl-1H-pyrazol-3-yl)amino]-6-(4-methylpiperazin-1-yl)-pyrimidin-2-yl]thiophene-2-sulfonamide] | 100 to 500
20 | CCCc1cnc(N2CCN(C)CC2)nc1Nc1cc(C2CC2)[nH]n1 [Compound 72, N-(5-cyclopropyl-1H-pyrazol-3-yl)-2-(4-methylpiperazin-1-yl)-5-propyl-pyrimidin-4-amine] | > 4000
21 | CCOC(=O)C(=O)c1ccc(-c2ncc(Cl)c(Nc3cc(C4CC4)[nH]n3)n2)s1 [Compound 189, ethyl 2-(5-(5-chloro-4-(5-cyclopropyl-1H-pyrazol-3-ylamino)pyrimidin-2-yl)thiophen-2-yl)-2-oxoacetate] | 50 to 100
22 | C#Cc1cnc(-c2ccc(CC#N)s2)nc1Nc1cc(C2CC2)n[nH]1 [Compound 130, 2-(5-(4-(3-Cyclopropyl-1H-pyrazol-5-ylamino)-5-ethynylpyrimidin-2-yl)thiophen-2-yl)acetonitrile] | 1 to 10
23 | NS(=O)(=O)c1ccccc1-c1ncc(Cl)c(Nc2cc(C3CC3)[nH]n2)n1 [Compound 155, 2-[5-chloro-4-[(5-cyclopropyl-1H-pyrazol-3-yl)amino]-pyrimidin-2-yl]benzenesulfonamide] | > 4000
24 | OC1CCCc2nc(-c3ncc(Cl)c(Nc4cc(C5CC5)[nH]n4)n3)sc21 (stereo not shown) [Compound 310, 2-[5-chloro-4-[(5-cyclopropyl-1H-pyrazol-3-yl)amino]-pyrimidin-2-yl]-4,5,6,7-tetrahydrobenzothiazol-7-ol] | 100 to 500
25 | CN(CCO)S(=O)(=O)c1cccc(-c2ncc(Cl)c(Nc3cc(C4CC4)[nH]n3)n2)c1 [Compound 134, 3-[5-chloro-4-[(5-cyclopropyl-1H-pyrazol-3-yl)amino]-pyrimidin-2-yl]-N-(2-hydroxyethyl)-N-methyl-benzenesulfonamide] | 10 to 50
26 | NS(=O)(=O)c1ccc(-c2ncc(Cl)c(Nc3cc(C4CC4)[nH]n3)n2)s1 [Compound 42, 5-(5-chloro-4-(5-cyclopropyl-1H-pyrazol-3-ylamino)pyrimidin-2-yl)thiophene-2-sulfonamide] | 1 to 10
27 | Cc1cc(Nc2ccnc(Nc3ccc(S(N)(=O)=O)cc3)n2)[nH]n1 [Compound 76, 4-[[4-[(5-methyl-2H-pyrazol-3-yl)amino]pyrimidin-2-yl]amino]benzenesulfonamide] | 10 to 50
28 | C/C=C\c1cnc(-c2ccc(S(N)(=O)=O)s2)nc1Nc1cc(C2CC2)[nH]n1 [Compound 207, (Z)-5-(4-(5-cyclopropyl-1H-pyrazol-3-ylamino)-5-(prop-1-enyl)pyrimidin-2-yl)thiophene-2-sulfonamide] | 1 to 10
29 | CC(C)(C)NS(=O)(=O)c1ccc(-c2ncc(C(F)(F)F)c(Nc3cc(C4CC4)n[nH]3)n2)s1 [Compound 162, 5-[4-[(5-cyclopropyl-2H-pyrazol-3-yl)amino]-5-(trifluoromethyl)pyrimidin-2-yl]-N-tert-butyl-thiophene-2-sulfonamide] | 500 to 1000
30 | O=C1/C=C\c2c(n[nH]c2C2CC2)Nc2nc(ncc2Cl)-c2ccccc21 [Compound 277, chloro-cyclopropyl-BLAHone] | > 4000
31 | CC(C)(C)NS(=O)(=O)c1ccc(-c2ncc(Cl)c(Nc3cc(C4CC4)[nH]n3)n2)cn1 [Compound 302, 5-[5-chloro-4-[(5-cyclopropyl-1H-pyrazol-3-yl)amino]-pyrimidin-2-yl]-N-tert-butyl-pyridine-2-sulfonamide] | 10 to 50
32 | CC(C)(C)NS(=O)(=O)c1ccc(-c2cccc(Nc3cc(C4CC4)[nH]n3)n2)s1 [Compound 271, 5-[6-[(5-cyclopropyl-1H-pyrazol-3-yl)amino]-2-pyridyl]-N-tert-butyl-thiophene-2-sulfonamide] | 10 to 50
33 | COC(=O)CC1c2cnc(-c3ccccc3)nc2Nc2cc(C3CC3)nn21 (stereo not shown) [Compound 49, methyl 2-(cyclopropyl-phenyl-BLAHyl)acetate] | > 4000
34 | O=S(=O)(NCC(F)(F)F)c1ccc(-c2ncc(Cl)c(Nc3cc(C4CC4)[nH]n3)n2)s1 [Compound 158, 5-[5-chloro-4-[(5-cyclopropyl-1H-pyrazol-3-yl)amino]-pyrimidin-2-yl]-N-(2,2,2-trifluoroethyl)thiophene-2-sulfonamide] | 10 to 50
35 | C#Cc1cnc(N2CC[C@H](N)C2)nc1Nc1cc(C2CC2)n[nH]1 [Compound 187, 2-(3-aminopyrrolidin-1-yl)-N-(5-cyclopropyl-2H-pyrazol-3-yl)-5-ethynyl-pyrimidin-4-amine] | > 4000
36 | CC(C)(C)NS(=O)(=O)C/C=C/c1cccc(Nc2cc(C3CC3)[nH]n2)n1 [Compound 269, 3-[6-[(5-cyclopropyl-1H-pyrazol-3-yl)amino]-2-pyridyl]-N-tert-butyl-prop-2-ene-1-sulfonamide] | 100 to 500
37 | CC(=O)Nc1cnc(-c2ccc(S(N)(=O)=O)s2)nc1Nc1cc(C2CC2)[nH]n1 [Compound 241, N-[4-[(5-cyclopropyl-1H-pyrazol-3-yl)amino]-2-(5-sulfamoyl-2-thienyl)-pyrimidin-5-yl]acetamide] | 50 to 100
